# According to patent US20200061026A1, “METHODS AND COMPOSITIONS FOR PREVENTING VECTOR-BORNE DISEASE TRANSMISSION” (The Scripps Research Institute, priority 2016, published 2020):
# Read-outs that look alike come from different tables or passages of the source.
# Experiments:
# [1] = tested on: Anopheles gambiae (Tiassalé); assay: Membrane feeding, Anopheles gambiae Tiassalé strain (rdl mutation); assay type: in vivo; details: for IC50: Anopheles gambiae, read-out: IC50 [95% CI]
# Experimental: Mosquito colonies utilized in the examples were generally maintained as described: The colony of Anopheles stephensi (Sind-Kasur Nijmegen strain) was maintained at the Radboud University Medical Center, Nijmegen, The Netherlands, by 30° C. and 70-80% humidity and on a 12/12 hour day/night cycle. The Anopheles gambiae strains Kisumu and Tiassalé and the Aedes aegypti strains New Orleans and Cayman were reared at the Liverpool Insect Testing Establishment, Liverpool, UK. Kisumu is an insecticide susceptible lab strain. New Orleans was originally colonized by the Centers for Disease Control and Prevention. The Tiassalé strain was colonized from Southern Cote D'Ivoire where resistance to all classes of insecticide is found and the Cayman strain was colonized from Grand Cayman, where Aedes aegypti are highly resistant to DDT and pyrethroid insecticides. Both resistant strains are routinely selected with insecticides to ensure the maintenance of resistance, 0.75% permethrin for Cayman and 0.05% deltamethrin for Tiassalé, and profiled for resistance to a range of insecticides, including 4% dieldrin, to which Tiassalé is resistant but Cayman is susceptible.
# Isoxazoline compounds fluralaner or afoxolaner were reconstituted in 50% human serum and 50% red blood cells and administered to adult Anopheles stephensi mosquitos via standard membrane feeding. Lethality was assessed 1, 2 or 8 days after exposure. FIG. 2A represents a plot of viable Anopheles stephensi versus fluralaner concentration at each day of assessment. FIG. 2B represents a plot of viable Anopheles stephensi versus afoxolaner concentration at each day of assessment. […] The IC50 values of each compound for Anopheles death were determined by logistic regression using a least squares method to find the best fit and are shown in Table 1. IC50 values were calculated by applying a four-parameter logistic regression model using a least-squares method to find the best fit using the Graphpad Prism 5.0 software package.
# The membrane feeding experiment described was repeated using the insecticide dieldrin on two strains of Anopheles gambiae: Kisumu and Tiassale. The Tiassale strain has a mutation in the resistance to dieldrin (rdl) locus, which codes for γ-aminobutyric acid (GABA) receptor. The Tiassale strain was resistant to pyrethroids, carbamate, DDT and dieldrin (knockdown resistance (kdr), Ace and rdl mutations). The Kisumu strain was susceptible to killing by all tested insecticides. FIG. 3A represents a plot of percentage survival of Kisumu and Tiassale strains of Anopheles gambiae versus dieldrin concentration. FIG. 3B represents a plot of survival of the Kisumu and Tiassale strains at 10 μM dieldrin. […] Both figures indicate that the dose-response in systemic feed experiment performed here in allows for identification of a resistance profile.
# The feed experiment in Anopheles gambiae was repeated using the isoxazoline compounds fluralaner and afoxolaner to determine if the rdl mutation confers resistance to the isoxazoline insecticides. Isoxazoline insecticides target Rdl, but in a location thought to be different from dieldrin. The mosquitos were fed fluralaner or afoxolaner at various concentrations and lethality was assessed after 24 hours. FIG. 4A represents a plot of percentage survival of Kisumu and Tiassale strains of Anopheles gambiae versus fluralaner concentration. FIG. 4B represents a plot of percentage survival of Kisumu and Tiassale strains of Anopheles gambiae versus afoxolaner concentration.
# [2] = Further in vitro degradation assay, human primary hepatocytes; details: for half-life / hepatocyte CLint: human; for metabolization when incubated with human hepatocytes: in words
# Experimental: (§1) In a further assay, isoxazolines (fluralaner and afoxolaner) and control compounds (7-Ethoxycoumarin and 7-Hydroxycoumarin [Sigma]) were dissolved in DMSO at 10 and 30 mM respectively, then diluted first 20-fold with 45% methanol in water and a further 10-fold in pre-warmed Williams' Medium E. Cryopreserved human, dog and rat hepatocytes (In Vitro Technologies) were thawed, isolated by percoll gradient and suspended in Williams' Medium E. Cells were then dispensed into the wells of 96-well plates containing 10 μL of diluted compounds, to reach a final concentration of 0.5×10^6 cells/mL and 1 μM of isoxazolines or 3 μM of control. After an incubation at 37° C. of 0, 15, 30, 60 or 90 minutes, the reaction was stopped with acetonitrile. The samples were then shaken for 10 minutes at 500 rpm and centrifuged at 3220 g for 20 minutes. Supernatants were transferred and stored at 4° C. until LC-MS-MS analysis.
# [3] = Further in vitro degradation assay, dog primary hepatocytes
# Experimental: as §1
# Brugia pahangi = Brugia pahangi microfilariae viability (Cell-Titer Glo); assay type: in vivo
# Experimental: Microfilariae of Brugia pahangi were kept in 75 cm^2 flasks in RPMI-1640 with fetal bovine serum as described previously (Plos Negl. Trop. Dis. 2012, e1494). To test viability, 384-well plates were filled with 250 microfilariae per well. Serial dilutions of isoxazolines, ivermectin, moxidectin and equivalent vehicle concentration (0.5% DMSO) were added to the wells. Seventy two hours after treatment, viability was assessed with the Cell-Titer Glo reagent (Promega). FIG. 13A represents a plot of viable Brugia pahangi versus fluralaner, afoxolaner, or control compound (moxidectin and ivermectin) concentration as assessed at 24 hours. FIG. 13B represents a plot of viable Brugia pahangi versus fluralaner, afoxolaner, or control compound (moxidectin and ivermectin) concentration as assessed at 48 hours. FIG. 13C represents a plot of viable Brugia pahangi versus fluralaner, afoxolaner, or control compound (moxidectin and ivermectin) concentration as assessed at 72 hours.
# Plasma stability, mouse = assay type: in vitro ADME; details: mouse (ms)
# Description: (§2) The stability of compounds in mouse (ms), rat (r), dog (d), cynomolgus monkey (cy), and human (hu) plasma is shown in Table 10 by the percentages of compounds remaining at two hours.
# Plasma stability, rat = assay type: in vitro ADME; details: rat (r)
# Description: as §2
# Plasma stability, dog = assay type: in vitro ADME; details: dog (d)
# Description: as §2
# [4] = Plasma stability, cynomolgus monkey; assay type: in vitro ADME; details: cynomolgus monkey (cy)
# Description: as §2
# Plasma stability, human = assay type: in vitro ADME; details: human (hu)
# Description: as §2
# [5] = Dog pharmacokinetics, single oral dose; assay type: in vivo; details: level at Day 45
# [6] = Brain homogenate binding assay (equilibrium dialysis)
# Experimental: Briefly, frozen tissue homogenate (homogenized with buffer at a certain volume ratio) was used as a test matrix. The tissue homogenate was purchased from Bioreclamation (Hicksville, N.Y., USA) or prepared by WuXi AppTec.
# Isoxazoline compounds were spiked into blank tissue homogenate at the test concentration. Triplicate samples were used.
# An appropriate volume of spiked tissue sample was removed before incubation for recovery calculation. An aliquot (e.g., 150 μL) of matrix sample was added to the donor side of the chamber (donor chamber) in a dialyzer plate (HTD dialysis device or RED device) and a certain amount of dialysis buffer was loaded to the other side of the chamber (receiver chamber). Triplicate incubations were performed (or other replicate number according to specific requirement).
# The dialyzer plate was placed into a humidified incubator with 5% CO2 and incubated at 37° C. for appointed time (the general incubation time is 4-6 h).
# After incubation, samples were removed from the donor side as well as the receiver side.
# The samples were matched with appropriate amount of the opposite blank matrix (tissue homogenate or buffer). […]
# The samples were analyzed by LC-MS/MS. Test compound concentrations in matrix and buffer samples were assessed based on the peak area ratios (PAR) of analyte/internal standard (no standard curve).
compound,measurement,setting,value
"Cc1cc(C2=NO[C@](c3cc(Cl)cc(Cl)c3)(C(F)(F)F)C2)ccc1C(=O)NCC(=O)NCC(F)(F)F [Fluralaner, fluralaner]",IC50,"[1]; 24 hours after the blood meal, Tiassalé strain",33.2 nM
same,activity against strain carrying the resistance-to-dieldrin (rdl) mutation (in words),[1]; Tiassalé strain,fully active
same,half-life,[2]; cryopreserved hepatocytes,> 3.61 h
same,hepatocyte CLint,[2]; cryopreserved hepatocytes,< 6.4 µL/min/1e6 cells
same,metabolization when incubated with human hepatocytes,[2],Neither fluralaner nor afoxolaner showed measurable metabolization
same,half-life,[3]; cryopreserved hepatocytes,> 3.61 h
same,hepatocyte CLint,[3]; cryopreserved hepatocytes,< 6.4 µL/min/1e6 cells
same,killing of Brugia pahangi (in words),Brugia pahangi,effective in killing Brugia pahangi
"O=C(CNC(=O)c1ccc(C2=NO[C@](c3cc(Cl)cc(C(F)(F)F)c3)(C(F)(F)F)C2)c2ccccc12)NCC(F)(F)F (racemic) [Afoxolaner, afoxolaner]",IC50,[1]; 24 h,101 nM
same,activity against strain carrying the resistance-to-dieldrin (rdl) mutation (in words),[1]; Tiassalé strain,fully active
same,half-life,[2]; hepatocytes,> 3.61 h
same,hepatocyte CLint,[2]; hepatocytes,< 6.4 µL/min/1e6 cells
same,metabolization when incubated with human hepatocytes,[2],Neither fluralaner nor afoxolaner showed measurable metabolization
same,half-life,[3]; hepatocytes,> 3.61 h
same,hepatocyte CLint,[3]; hepatocytes,< 6.4 µL/min/1e6 cells
same,Plasma stability % remaining @ 2 h,"Plasma stability, mouse",83% (ms);
same,Plasma stability % remaining @ 2 h,"Plasma stability, rat",61% (r);
same,Plasma stability % remaining @ 2 h,"Plasma stability, dog",100% (d);
same,Plasma stability % remaining @ 2 h,[4],84% (cy);
same,Plasma stability % remaining @ 2 h,"Plasma stability, human",84% (hu)
same,Dog PK (PO),[5],~600 nM at Day 45
same,killing of Brugia pahangi (in words),Brugia pahangi,effective in killing Brugia pahangi
O=C(CNC(=O)c1ccc(C2=NO[C@@](c3cc(Cl)cc(C(F)(F)F)c3)(C(F)(F)F)C2)c2ccccc12)NCC(F)(F)F [(S)-afoxolaner],Brain homogenate % binding,[6],>99.9%
"O=C(CNC(=O)c1ccc(C2=NO[C@@](c3cc(Cl)cc(Cl)c3)(C(F)(F)F)C2)c2ccccc12)NCC(F)(F)F [(S)-4-(5-(3,5-dichlorophenyl)-5-(trifluoromethyl)-4,5-dihydroisoxazol-3-yl)-N-(2-oxo-2-((2,2,2-trifluoroethyl)amino)ethyl)-1-naphthamide]",Brain homogenate % binding,[6],>99.9%
